Results: patent US6291496A, “Treating cancers associated with overexpression of class I family of receptor tyrosine kinases” (priority 1999, dated 2001)

Legend:
[1] = system: head and neck carcinoma where EGFR is overexpressed; assay: Example VII: head and neck carcinoma; assay type: in vivo, human; settings: after the 12 weeks of CETUXIMAB and cisplatin, oral 5 mg/kg twice daily for 12 weeks
Protocol: Concurrently cisplatin is infused every four weeks at 60 mg/m^2.

[2] = system: HER-2/neu positive breast cancer; assay: Example II: adjuvant therapy with PPARγ ligand and HERCEPTIN; assay type: in vivo, human; settings: patient, oral 5 mg/kg twice daily for one year, with HERCEPTIN 250 mg IV loading then 10 weekly doses of 125 mg
[3] = system: HER-2/neu positive breast cancer metastasized to lung and liver; assay: Example III: breast cancer metastasized to lung and liver; assay type: in vivo, human; settings: patient, oral 5 mg/kg twice daily
Protocol: After three months, the PPARγ ligand administration is continued in combination regimen with Taxol® at a dose of 175 mg/m^2 administered intravenously every three weeks.

HER-2/neu transcription = assay: nuclear run-off assay of HER-2/neu transcription in 184B5/HER cells; assay type: cell-based, human; settings: ciglitazone 5, 10 or 25 μM, 24 hours
Protocol: To determine whether PPARγ ligands inhibit the transcription of HER-2/neu, a nuclear run-off assay was carried out. 184B5/HER cells were treated with vehicle (0.01% dimethyl sulfoxide) or ciglitazone (5,10 or 25 μM) for 24 hours. 2.5×10^5 cells were plated in four T150 dishes for each condition. Cells were grown in growth medium until 60% confluent. Nuclei were isolated and stored in liquid nitrogen. The HER-2/neu and 18S rRNA cDNAs were immobilized on a nitrocellulose membrane (Schleicher & Schuell, Keene, N.H.) and prehybridized overnight in hybridization buffer.

For `CC1(COc2ccc(CC3SC(=O)NC3=O)cc2)CCCCC1` (stereo not shown) [ciglitazone], the tumor burden [1] was “further reduced tumor burden”, the “recurrence of breast cancer” value [2] was “Recurrence of breast cancer does not occur” and the tumor burden [3] was “reduced tumor burden”. For the same compound, the “HER-2/neu transcription (nuclear run-off)” value (HER-2/neu transcription) was “dose-dependent suppression of HER-2/neu transcription”.
